From patent US9351915B2, “Ascorbic acid derivative composition and production method of the same, ascorbic acid derivative solution, and skin external preparation” (SHOWA DENKO K.K., priority 2012, dated 2016)

Assays:
[1] = Storage stability test (aqueous solution, residual ratio by HPLC); assay type: physicochemical; details: 2% by mass ascorbic acid derivative in purified water, glass bottle with lid, 10 days at 40° C., light shielding; total of 2- and 3-phosphate salts
Description: The sodium salt of L-ascorbic acid-2-phosphoric acid-6-palmitate obtained in Production Example 2 and the sodium salt of L-ascorbic acid-3-phosphoric acid-6-palmitate obtained in Production Example 4 were mixed at a ratio (% by mass) shown in Table 1 to prepare ascorbic acid derivative compositions of Examples 1 to 3.
The mixture obtained in Production Example 6 ((sodium salt of L-ascorbic acid-2-phosphoric acid-6-palmitate): (sodium salt of L-ascorbic acid-3-phosphoric acid-6-palmitate)=97.7:2.3 (mass ratio)) was used as it is as an ascorbic acid derivative composition of Example 4. […]
The concentration of ascorbic acid derivative in each of the solutions obtained before standing (immediately after preparation) and after standing for 10 days was measured, and the “residual ratio” was determined from the results by the following formula.
The concentration of ascorbic acid derivative contained in the solution was measured by the same measuring conditions as in the evaluation of the yield, with a high performance liquid chromatography apparatus using the Shodex SB 802.5 HQ column (manufactured by Showa Denko K.K.). […]

[2] = Solubility test (time until solid is absent in aqueous medium); assay type: physicochemical; details: 20° C., 500 rpm, visual observation every 5 minutes
Procedure: Each substance shown in Table 2 was prepared at the ratio (% by mass) indicated in Table 2 so that the total amount was 100 g. First, pure water or a mixture of pure water and methanol serving as a solvent was placed in a beaker having a capacity of 200 mL, and the beaker was immersed in a water bath which was controlled to 20° C. Then, stirring was performed at a rotational speed of 500 rpm with a stirrer chip having a diameter of 2.5 cm, and the ascorbic acid derivative was mixed at the point where the liquid temperature reached 20° C. This time point was set as the zero point and the time (min) until the solid became absent in the mixture was measured. As for the end point, visual observation was carried out every 5 minutes from the start of the stirring, and the time point at which the mixture became clear was determined as the end point.

SMILES	Residual ratio (%) [1]	other results
CCCCCCCCCCCCCCCC(=O)OCC(O)C1OC(=O)C(OP(=O)([O-])[O-])=C1[O-].[Na+].[Na+].[Na+] [Comp. Ex. 1, Sodium salt of L-ascorbic acid-2-phosphoric acid-6-palmitate]	88.6%	
CCCCCCCCCCCCCCCC(=O)OCC(O)C1OC(=O)C([O-])=C1OP(=O)([O-])[O-].[Na+].[Na+].[Na+] [Comp. Ex. 2, Sodium salt of L-ascorbic acid-3-phosphoric acid-6-palmitate]	83.9%	
CCCCCCCCCCCCCCCC(=O)OCC(O)C1OC(=O)C(OP(=O)([O-])[O-])=C1[O-].[Na+].[Na+].[Na+] [Comp. Ex. 3, Sodium salt of L-ascorbic acid-2-phosphoric acid-6-palmitate]		Time required for dissolution ([2]; 10% by mass ascorbic acid derivative in 90% by mass pure water): 50 min
CCCCCCCCCCCCCCCC(=O)OCC(O)C1OC(=O)C(OP(=O)([O-])[O-])=C1[O-].[Na+].[Na+].[Na+] [Comp. Ex. 4, Sodium salt of L-ascorbic acid-2-phosphoric acid-6-palmitate]		Time required for dissolution ([2]; 10% by mass ascorbic acid derivative in 70% by mass pure water + 20% by mass methanol): 65 min
